Laboratory results: ChEMBL document CHEMBL1201862, “PubChem BioAssay data set” (2004)
Active and inactive are the calls of the source.

Experiments:
[1] = molecular target: T1, Polyadenylate-binding protein 1 (Homo sapiens, UniProt P11940); assay: MLLE domain peptide-binding blockers, IC50 – biochemical, fluorescence polarization, FITC-PAM2 peptide, dose response (AID 602259); format: functional; settings: read-out: IC50_Mean
[2] = molecular target: T1, Polyadenylate-binding protein 1; assay: MLLE binding blockers, Cy5 peptide tracer – biochemical, fluorescence polarization, Cy5-PAM2 peptide, secondary, miRNA deadenylation inhibitor project, dose response (AID 602260); format: functional; settings: read-out: IC50_Mean
[3] = intracellular Trypanosoma cruzi inhibitors in host cells – cell-based, plate reader, cherry-pick samples, set 3, dose response (AID 651818); format: functional;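 further: compounds incubated with infected cells for about four days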
[4] = molecular target: Luciferin 4-monooxygenase (Photinus pyralis, UniProt P08659); assay: inhibition of purified Photinus pyralis luciferase – biochemical, luminescence, dose response (AID 1891)
[5] = molecular target: FAD-linked sulfhydryl oxidase ALR (Homo sapiens, UniProt P55789); assay: ALR-catalysed DTT oxidation blockers – biochemical, H2O2 detection, luminescence, cherry-pick, dose response (AID 493248)
[6] = viability of HCT116 lacking mutant beta-catenin – cell-based, human colon tumor, dose response (AID 1045); format: functional;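 further: HCT116 colon tumor cells with beta catenin knocked out; cells exposed to compound for 60 hours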
[7] = viability of PTEN-deleted HCT116 cells – cell-based, HCT116 PTEN knockout, dose response (AID 1047); format: functional;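 further: HCT116 colon tumor cells with PTEN knocked out; cells exposed to compound for 60 hours before readout; potency for loss of cell viability measured by luminescence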
[8] = molecular target: T2, Ubiquitin-conjugating enzyme E2 N (Homo sapiens, UniProt P61088); format: functional;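 further: Dose-response confirmation in a TR-FRET assay detecting UBC13-driven polyubiquitin chain formation, inhibition measured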
T2 sequence (P61088 whole entry): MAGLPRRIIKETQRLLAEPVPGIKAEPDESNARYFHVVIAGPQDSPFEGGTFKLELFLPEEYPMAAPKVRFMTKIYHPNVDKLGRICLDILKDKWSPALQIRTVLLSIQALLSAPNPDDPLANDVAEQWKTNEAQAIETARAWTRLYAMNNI

[9] = non-specific 3'UTR reporter inhibition in Clone20-Shn3RL – cell-based, Renilla luciferase, cherry-picked, counter-screen for Shn3 inhibitor project, dose response (AID 624133); format: functional
Genome polyprotein = Genome polyprotein (dengue virus type 2, UniProt P29990); assay: flavivirus cap methylation enzyme inhibition – biochemical, confirmation dose response, primary screen (AID 588689); format: functional
Chain of Genome polyprotein (P29990 2492-3391 limits assumed): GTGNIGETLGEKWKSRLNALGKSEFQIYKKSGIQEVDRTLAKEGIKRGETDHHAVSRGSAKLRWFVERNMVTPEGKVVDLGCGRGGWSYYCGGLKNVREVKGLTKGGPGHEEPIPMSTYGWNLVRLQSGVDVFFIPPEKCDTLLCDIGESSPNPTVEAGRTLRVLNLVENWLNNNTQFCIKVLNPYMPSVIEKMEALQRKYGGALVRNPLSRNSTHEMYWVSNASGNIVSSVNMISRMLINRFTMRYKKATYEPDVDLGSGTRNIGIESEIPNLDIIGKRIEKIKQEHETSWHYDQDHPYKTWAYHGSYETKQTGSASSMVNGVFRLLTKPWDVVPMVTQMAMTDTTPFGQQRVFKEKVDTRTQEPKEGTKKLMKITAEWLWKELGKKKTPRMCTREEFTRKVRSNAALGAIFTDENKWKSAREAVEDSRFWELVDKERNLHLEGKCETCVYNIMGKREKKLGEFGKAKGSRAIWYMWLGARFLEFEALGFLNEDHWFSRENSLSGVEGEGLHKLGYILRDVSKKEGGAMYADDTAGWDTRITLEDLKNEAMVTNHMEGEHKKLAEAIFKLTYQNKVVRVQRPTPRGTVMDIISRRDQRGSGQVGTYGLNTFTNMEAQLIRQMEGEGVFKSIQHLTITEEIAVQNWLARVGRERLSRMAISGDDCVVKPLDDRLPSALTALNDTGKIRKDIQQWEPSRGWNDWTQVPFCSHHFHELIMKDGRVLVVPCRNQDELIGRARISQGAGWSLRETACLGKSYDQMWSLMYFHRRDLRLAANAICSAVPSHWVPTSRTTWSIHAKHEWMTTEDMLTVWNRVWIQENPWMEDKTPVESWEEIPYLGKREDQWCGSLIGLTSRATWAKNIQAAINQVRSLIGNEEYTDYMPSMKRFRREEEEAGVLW

T1 sequence (P11940 whole entry, the tested form may be a part): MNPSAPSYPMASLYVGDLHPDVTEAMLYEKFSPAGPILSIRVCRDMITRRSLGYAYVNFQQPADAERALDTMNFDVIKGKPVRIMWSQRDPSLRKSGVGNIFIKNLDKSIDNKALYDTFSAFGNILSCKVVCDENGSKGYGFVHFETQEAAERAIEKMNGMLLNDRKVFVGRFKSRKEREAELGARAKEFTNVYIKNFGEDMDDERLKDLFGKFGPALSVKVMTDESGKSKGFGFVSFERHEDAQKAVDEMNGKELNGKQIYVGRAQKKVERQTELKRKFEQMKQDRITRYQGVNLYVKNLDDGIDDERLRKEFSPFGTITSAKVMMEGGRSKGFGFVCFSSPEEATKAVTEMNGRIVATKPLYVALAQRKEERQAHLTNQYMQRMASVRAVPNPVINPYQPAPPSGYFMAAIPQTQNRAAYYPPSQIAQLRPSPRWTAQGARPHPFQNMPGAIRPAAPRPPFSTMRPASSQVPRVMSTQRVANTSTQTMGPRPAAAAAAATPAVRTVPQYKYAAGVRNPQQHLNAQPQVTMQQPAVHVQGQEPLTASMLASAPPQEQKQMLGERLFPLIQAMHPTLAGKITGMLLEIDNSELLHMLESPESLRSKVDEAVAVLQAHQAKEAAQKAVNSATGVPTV
Chain of FAD-linked sulfhydryl oxidase ALR (P55789 whole entry): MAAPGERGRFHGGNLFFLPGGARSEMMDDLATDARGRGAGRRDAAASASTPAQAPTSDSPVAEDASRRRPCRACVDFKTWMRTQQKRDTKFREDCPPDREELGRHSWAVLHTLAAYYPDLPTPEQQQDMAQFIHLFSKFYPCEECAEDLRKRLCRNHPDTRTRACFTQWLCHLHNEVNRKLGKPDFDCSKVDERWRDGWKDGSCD
Chain of Luciferin 4-monooxygenase (P08659 whole entry): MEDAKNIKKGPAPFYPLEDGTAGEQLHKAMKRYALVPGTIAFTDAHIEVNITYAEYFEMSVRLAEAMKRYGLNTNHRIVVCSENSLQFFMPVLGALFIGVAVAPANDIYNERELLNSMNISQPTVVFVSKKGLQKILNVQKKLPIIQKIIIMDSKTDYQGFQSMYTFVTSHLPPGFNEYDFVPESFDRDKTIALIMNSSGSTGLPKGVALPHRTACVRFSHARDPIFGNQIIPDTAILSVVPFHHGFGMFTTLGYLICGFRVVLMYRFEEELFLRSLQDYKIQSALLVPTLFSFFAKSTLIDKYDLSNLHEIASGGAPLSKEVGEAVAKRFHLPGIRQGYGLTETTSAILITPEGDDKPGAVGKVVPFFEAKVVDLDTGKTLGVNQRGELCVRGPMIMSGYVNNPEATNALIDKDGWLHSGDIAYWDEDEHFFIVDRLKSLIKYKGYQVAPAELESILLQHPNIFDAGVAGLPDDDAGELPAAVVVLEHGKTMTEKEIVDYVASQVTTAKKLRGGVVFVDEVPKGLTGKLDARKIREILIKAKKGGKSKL

Question: What does the source list for `CCC(c1nnnn1Cc1ccc(F)cc1)N(CCCO)Cc1cc2cc3c(cc2nc1O)OCO3` (centres undefined)?
Answer: IC50 [1]: > 66 µM (inactive); IC50 [2]: > 66 µM (inactive)

Question: Which AC50 [3] does the source give for `C[C@@H]1CN([C@@H](C)CO)C(=O)Cc2cc(NC(=O)Nc3cccc4ccccc34)ccc2O[C@@H]1CN(C)Cc1ccc(-c2ccccc2)cc1` here?
Answer: The AC50 was 3.22 µM (active).

Question: For `O=c1[nH]c2ccc(NC(=S)Nc3ccccc3Cl)cc2[nH]1`, which EC50 [4] is on record?
Answer: Its EC50 is > 112 µM (not active).

Question: What about the IC50 [1] of the same compound?
Answer: Its IC50 is > 66 µM (inactive).

Question: What about the IC50 [2] of the same compound?
Answer: The IC50 was > 66 µM (inactive).

Question: For `COc1ccc(CN(C)C[C@H]2Oc3ccc(NC(=O)C4CCCCC4)cc3CC(=O)N([C@@H](C)CO)C[C@@H]2C)cc1`, which AC50 [3] is on record?
Answer: The AC50 was 1.2 µM (active).

Question: What does the source list for `Cc1noc(C)c1-c1csc(N2CCC(C(N)=O)CC2)n1`?
Answer: IC50 [1]: > 66 µM (inactive); IC50 [2]: > 66 µM (inactive)

Question: For `C/C(=N\NC(=O)CN1CCN(S(=O)(=O)c2ccc(C)cc2)CC1)c1ccc(O)cc1`, which AC50 [5] is on record?
Answer: The AC50 was 2.92 µM (active).

Question: With `C[C@@H]1CN([C@@H](C)CO)C(=O)Cc2cc(NC(=O)Nc3ccc4c(c3)OCO4)ccc2O[C@@H]1CN(C)Cc1ccc(Oc2ccccc2)cc1` as the compound, how does the AC50 [3] read?
Answer: The AC50 was 2.77 µM (active).

Question: With `C[C@H]1CN([C@@H](C)CO)C(=O)Cc2cc(NS(=O)(=O)c3ccc(F)cc3)ccc2O[C@H]1CN(C)Cc1ccc(C(=O)Nc2ccccc2N)cc1` as the compound, how does the AC50 [3] read?
Answer: Its AC50 is 2.64 µM (active).

Question: For `O=C(C1CCCC1)N1CCN=C1SCc1cccc([N+](=O)[O-])c1`, which AC50 [5] is on record?
Answer: Its AC50 is 0.032 µM (active).

Question: With `CN1CCN(c2ccc(S(=O)(=O)N3CCCCC3)cc2NC(=O)c2ccc3ccccc3c2)CC1` as the compound, how does the EC50 [6] read?
Answer: Its EC50 is 17.8 µM (active).

Question: And the EC50 [7]?
Answer: Its EC50 is 16 µM (active).

Question: And the IC50 [8]?
Answer: The IC50 was > 20 µM (inactive).

Question: With `C[C@H](CO)N1C[C@H](C)[C@@H](CN(C)Cc2ccc(C(=O)Nc3ccccc3N)cc2)Oc2c(NC(=O)C3CC3)cccc2C1=O` as the compound, how does the AC50 [3] read?
Answer: The AC50 was 1.13 µM (active).

Question: For `Nc1cc(O)nc(SCC(=O)Nc2cccc([N+](=O)[O-])c2)n1`, which AC50 [9] is on record?
Answer: The AC50 was 27.7 µM (active).

Question: Which IC50 (Genome polyprotein) does the source give for `COc1ccc(/C=C2/SC(=S)N(NS(=O)(=O)c3ccc(C)cc3)C2=O)cc1` here?
Answer: The IC50 was 56.9 µM (active).
